Reference: patent US20230018989A1, “INHIBITING THE RNA […] METTL3 OR ITS INTERACTION WITH EIF3H TO […] ONCOGENE TRANSLATION AND TUMORIGENESIS” (Children's Medical Center Corporation, priority 2019, published 2023)

Key:
A549 cells [1] = assay: Annexin V/PI apoptosis assay (FACS) upon JQ1 treatment; type: cell-based, human; settings: 500 nM JQ1, five days; METTL3 depleted A549 cells compared with control A549 cells
Procedure: (§1) FIGS. 7A-7N. METTL3 promotes translation of a large subset of mRNAs. (FIGS. 7A-7E) Global profiling of METTL3 target genes in HeLa. Cytoplasmic extracts from control or METTL3 depleted cells were subjected to sucrose gradient centrifugation. Total RNA, RNA from sub-polysome fractions and RNA from polysome fractions were analyzed by RNA-seq. (FIG. 7A) Peak analysis of polysome profiling. (FIG. 7B) Scatter plot of RNA-Seq data in METTL3 knockdown (shMETTL3) and control (shGFP) HeLa cells. Average read number from two individual METTL3 knockdown is plotted on the y-axis. (FIG. 7C) Scatter plot of RNA-Seq data in shMETTL3 and shGFP HeLa cells. Average read number from two shMETTL3 samples were calculated by the ratio of polysome fraction to the read number in the sub-polysome fraction and plotted on the y-axis. (FIG. 7D) Venn diagram showing the overlap of 2-fold less translated genes and METTL3 PAR-CLIP data. […] (FIG. 7N) Quantification of apoptotic cells, numbers represent ratio between death cells in JQ1 and DMSO treatments. […]
FIGS. 9A-9E. […] (FIG. 9B) Density plot reflects the distribution of changes in percent spliced In (APSI) values and according p-values for alternative splicing events detected by rMATs v3.2.5. […] (FIG. 9E) Annexin V/PI staining of METTL3 knockdown and control A549 cells upon JQ1 treatment that was analyzed by FACS. […]

A549 cells [2] = assay: MTS cell proliferation assay upon JQ1 treatment; type: cell-based, human; settings: 500 nM JQ1; METTL3 depleted A549 cells compared with control A549 cells
Procedure: as §1, with “y-axis.” for “y-axis. (FIG. 7D) Venn diagram showing the overlap of 2-fold less translated genes and METTL3 PAR-CLIP data.”
Cell proliferation and apoptosis assays were performed as described previously^8. […] Absorbances at 490 nm were measured using CellTiter 96 AQueous One Solution Cell Proliferation Assay kit (Promega) on day 2, day 4, and day 6 to measure the cellular proliferation. The numbers of apoptotic cells were quantified by flow cytometric assays using Annexin V-FITC Apoptosis Detection Kit (BioVision) five days after 500 nM of JQ1 treatment and cell seeding.

[3] = molecular target: eIF3h (endogenous, in cells) (human) (UniProt O15372); assay: cell-based or functional assay
UniProt O15372, sequence (O15372 whole entry): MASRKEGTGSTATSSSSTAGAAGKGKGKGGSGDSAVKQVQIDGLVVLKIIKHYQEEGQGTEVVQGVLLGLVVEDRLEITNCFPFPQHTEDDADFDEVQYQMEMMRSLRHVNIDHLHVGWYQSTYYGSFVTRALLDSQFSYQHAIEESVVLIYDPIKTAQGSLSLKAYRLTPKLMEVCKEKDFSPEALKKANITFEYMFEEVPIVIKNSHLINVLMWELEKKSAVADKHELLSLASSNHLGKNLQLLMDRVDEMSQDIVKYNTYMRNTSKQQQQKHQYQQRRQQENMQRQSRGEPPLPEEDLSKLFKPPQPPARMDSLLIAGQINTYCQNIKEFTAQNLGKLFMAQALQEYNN

Row | Molecule | number of apoptotic cells, JQ1 versus DMSO (A549 cells [1]) | cellular proliferation (OD490), JQ1 versus DMSO (A549 cells [2]) | translation efficiency of reporter mRNA (tethering assay, FLuc-MS2bs, with control siRNA or eIF3h knockdown) [3]
1 | Cc1sc2c(c1C)C(c1ccc(Cl)cc1)=N[C@@H](CC(=O)OC(C)(C)C)c1nnc(C)n1-2 [JQ1] | increased the number of apoptotic cells | stronger proliferation defect | –
2 | FLAG-MS2-METTL3 (from UniProt Q86U44 1-580) | – | – | 2 fold
